Measured values published in PMC10447463, “Data-mining unveils structure–property–activity correlation of viral infectivity enhancing self-assembling peptides” (Nature Communications, 2023).
Read-outs that look alike come from different tables or passages of the source.

Columns and labels:
[1] = type: physicochemical; settings: for ThT Cat. / ThT-Fluorescence (categorical): ThT-active if fluorescence at least twice the control
How it was run: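 Fibrils (1 mg/mL solution) were mixed with 50 µM ThT in PBS for 15 min at RT, and fluorescence was read at λex 440/λem 488 nm against a PBS blank, as a triplicate mean ± SD. Zeta potential came from electrophoretic mobility (Smoluchowski) after 1 d aggregation at 1 mg/mL in PBS pH 7.4, diluted into 1 mM KCl.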

[2] = Conversion rate (CR) assay with fluorescamine; type: physicochemical; set-up: key to CR: % = 100−100×filtrate/original fluorescence intensity; settings: for CR / %: Fig. S7 panel B; for CR / % / CR: conversion rate
How it was run: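 Conversion rate: fluorescamine fluorescence (ex 365/em 470 nm, 20 min RT) of 3 kDa filtrate versus unfiltered PNF, CR = 100 − 100 × filtrate/original intensity, triplicates. β-sheet content came from ATR FT-IR of lyophilized 1 mg/mL PNF powder, 64 scans.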

[3] = type: physicochemical; set-up: key to Fibril / Fibril Formation / TEM 2cat / Fibril: 1 = fibrils present; 0 non-fibrillar structures; settings: for Fibril / Fibril Formation: 1 mg/mL, uranyl acetate stain, qualitative
[4] = FigS12 panel A, fibril category by TEM
[5] = TEM, 1 = fibrils present, 0 = non-fibrillar
[6] = TEM, 1 = fibrils present, 0 = non-fibrillar structures
[7] = category: fibrils present or non-fibrillar
[8] = ThT fluorescence category, 1 if Rel. ThT >2

| Substance | Tht category (> 2 to blank = +) ([1]; Fig S10 panel D) | ThT Cat. ([1]; Fig S10 panel E) | Tht category (> 2 to blank = +) ([1]; FigS12 panel A) | ThT Cat, ([1]; FigS12 panel B) | ThT Cat, ([1]; ThT category, 1 if Rel. ThT >2) | ThT Cat. ([1]; ThT category, 1 if Rel. ThT >2) | ThT Cat. / ThT-Fluorescence (categorical) [1] | CR / % ([2]; fluorescamine assay) | CR ([2]; fluorescamine assay) | TEM 2cat ([3]; Fig S10 panel D) | Fibril ([3]; Fig S10 panel E) | TEM 2cat [3, 4] | Fibril ([3]; FigS12 panel B, TEM) | Fibril / Fibril Formation ([3]; TEM) | Fibril [3, 5] | Fibril [3, 6] | TEM 2cat [3, 7] | further results |
| --- | --- | --- | --- | --- | --- | --- | --- | --- | --- | --- | --- | --- | --- | --- | --- | --- | --- | --- |
| HLHLPLL | 0 (ThT-inactive (N-Fold <2)) | 0 (ThT-inactive (N-Fold <2)) | 0 (ThT-inactive (N-Fold <2)) | 0 (ThT-inactive (N-Fold <2)) | 0 (ThT-inactive (N-Fold <2)) | 0 (ThT-inactive (N-Fold <2)) | 0 (ThT-inactive (N-Fold <2)) | 37.5% | 37.51 | 0 | 0 | 0 | 0 | 0 | 0 | 0 | – | – |
| QCKFKFQFNMWQ | 0 (ThT-inactive (N-Fold <2)) | – | – | – | 0 (ThT-inactive (N-Fold <2)) | 0 (ThT-inactive (N-Fold <2)) | 0 (ThT-inactive (N-Fold <2)) | 98.9% | 98.91 | 1 | 1 | – | – | 1 | 1 | 1 | 1 | – |
| RGEKIKIQINM | 1 (ThT. Cat is 1, if Rel. ThT >2) | 1 (ThT. Cat is 1, if Rel. ThT >2) | – | – | 1 (ThT. Cat is 1, if Rel. ThT >2) | 1 (ThT. Cat is 1, if Rel. ThT >2) | 1 (ThT. Cat is 1, if Rel. ThT >2) | 80.3% | 80.28 | 1 | 1 | – | – | 1 | 1 | 1 | 1 | – |
| CKFKFQFNM | 1 (ThT. Cat is 1, if Rel. ThT >2) | 1 (ThT. Cat is 1, if Rel. ThT >2) | – | – | 1 (ThT. Cat is 1, if Rel. ThT >2) | 1 (ThT. Cat is 1, if Rel. ThT >2) | 1 (ThT. Cat is 1, if Rel. ThT >2) | 93.5% | 93.52 | 1 | 1 | – | – | 1 | 1 | 1 | 1 | – |
| RGDKIRGDKI | 0 (ThT-inactive (N-Fold <2)) | 0 (ThT-inactive (N-Fold <2)) | 0 (ThT-inactive (N-Fold <2)) | 0 (ThT-inactive (N-Fold <2)) | 0 (ThT-inactive (N-Fold <2)) | 0 (ThT-inactive (N-Fold <2)) | 0 (ThT-inactive (N-Fold <2)) | 48.4% | 48.38 | 0 | 0 | 0 | 0 | 0 | 0 | 0 | – | – |
| MKFKFQF | 0 (ThT-inactive (N-Fold <2)) | 0 (ThT-inactive (N-Fold <2)) | 0 (ThT-inactive (N-Fold <2)) | 0 (ThT-inactive (N-Fold <2)) | 0 (ThT-inactive (N-Fold <2)) | 0 (ThT-inactive (N-Fold <2)) | 0 (ThT-inactive (N-Fold <2)) | 86.9% | 86.86 | 1 | 1 | 1 | 1 | 1 | 1 | 1 | – | – |
| QCKFKFQFNM | 1 (ThT. Cat is 1, if Rel. ThT >2) | 1 (ThT. Cat is 1, if Rel. ThT >2) | – | – | 1 (ThT. Cat is 1, if Rel. ThT >2) | 1 (ThT. Cat is 1, if Rel. ThT >2) | 1 (ThT. Cat is 1, if Rel. ThT >2) | 98.9% | 98.94 | 1 | 1 | – | – | 1 | 1 | 1 | 1 | – |
| CKFQC | 0 (ThT-inactive (N-Fold <2)) | 0 (ThT-inactive (N-Fold <2)) | 0 (ThT-inactive (N-Fold <2)) | 0 (ThT-inactive (N-Fold <2)) | 0 (ThT-inactive (N-Fold <2)) | 0 (ThT-inactive (N-Fold <2)) | 0 (ThT-inactive (N-Fold <2)) | 33.2% | 33.24 | 0 | 0 | 0 | 0 | 0 | 0 | 0 | – | – |
| KIKIQINM | 0 (ThT-inactive (N-Fold <2)) | 0 (ThT-inactive (N-Fold <2)) | – | – | 0 (ThT-inactive (N-Fold <2)) | – | 0 (ThT-inactive (N-Fold <2)) | 64% | 64 | 1 | 1 | – | – | 1 | 1 | 1 | 1 | ThT Cat. [1, 8]: 0 (ThT-inactive (N-Fold <2)) |
| QCKIKIQINMWQ | 1 (ThT. Cat is 1, if Rel. ThT >2) | 1 (ThT. Cat is 1, if Rel. ThT >2) | – | – | 1 (ThT. Cat is 1, if Rel. ThT >2) | 1 (ThT. Cat is 1, if Rel. ThT >2) | 1 (ThT. Cat is 1, if Rel. ThT >2) | 93.7% | 93.68 | 1 | 1 | – | – | 1 | 1 | 1 | 1 | – |
| QCKIKQIINMWQ [reference compound] | 1 (ThT. Cat is 1, if Rel. ThT >2) | 1 (ThT. Cat is 1, if Rel. ThT >2) | – | – | 1 (ThT. Cat is 1, if Rel. ThT >2) | 1 (ThT. Cat is 1, if Rel. ThT >2) | 1 (ThT. Cat is 1, if Rel. ThT >2) | 77% | 76.98 | 1 | 1 | – | – | 1 | 1 | 1 | 1 | Tht rel to blank (42.1851851851852) ([1]; ThT fluorescence relative to blank (42.1851851851852 a.u.)): 3.802; Tht rel to blank (42.1851851851852) ([1]; ThT fluorescence relative to blank, blank = 42.1851851851852): 3.802; Tht category (> 1.5 to blank = +) ([1]; category 1/0): 1 (ThT. Cat is 1, if Rel. ThT >2); Tht rel to blank (42.1851851851852) ([1]; relative to blank 42.1851851851852 a.u.): 3.802; Conversion Rate / % [2]: 76.98%; Conversion Rate / % ([2]; fluorescamine assay): 76.98%; TEM: 1= fibrils, 0= aggregates (micelle), 0.5 = aggregates and fibrils, -1 = nothing obersved, STD prep ([3]; STD prep): 0.5 |
| RGECKFKFQF | 1 (ThT. Cat is 1, if Rel. ThT >2) | 1 (ThT. Cat is 1, if Rel. ThT >2) | – | – | 1 (ThT. Cat is 1, if Rel. ThT >2) | 1 (ThT. Cat is 1, if Rel. ThT >2) | 1 (ThT. Cat is 1, if Rel. ThT >2) | 98.7% | 98.71 | 1 | 1 | – | – | 1 | 1 | 1 | 1 | – |
| CKIKQIINM | 1 (ThT. Cat is 1, if Rel. ThT >2) | 1 (ThT. Cat is 1, if Rel. ThT >2) | – | – | 1 (ThT. Cat is 1, if Rel. ThT >2) | 1 (ThT. Cat is 1, if Rel. ThT >2) | 1 (ThT. Cat is 1, if Rel. ThT >2) | 45% | 45 | 1 | 1 | – | – | 1 | 1 | 1 | 1 | – |
| PPFHPPPFHP | 0 (ThT-inactive (N-Fold <2)) | – | 0 (ThT-inactive (N-Fold <2)) | 0 (ThT-inactive (N-Fold <2)) | 0 (ThT-inactive (N-Fold <2)) | 0 (ThT-inactive (N-Fold <2)) | 0 (ThT-inactive (N-Fold <2)) | – | – | 0 | – | 0 | 0 | 0 | 0 | 0 | – | – |
| CKFKFQFNMW | 1 (ThT. Cat is 1, if Rel. ThT >2) | – | – | – | 1 (ThT. Cat is 1, if Rel. ThT >2) | – | 1 (ThT. Cat is 1, if Rel. ThT >2) | – | – | 1 | – | – | – | 1 | 1 | 1 | 1 | ThT Cat. [1, 8]: 1 (ThT. Cat is 1, if Rel. ThT >2) |
| QCKIKIQI | 1 (ThT. Cat is 1, if Rel. ThT >2) | – | – | – | 1 (ThT. Cat is 1, if Rel. ThT >2) | 1 (ThT. Cat is 1, if Rel. ThT >2) | 1 (ThT. Cat is 1, if Rel. ThT >2) | – | – | 1 | – | – | – | 1 | 1 | 1 | 1 | – |
